In patent US20100099561A1, “HETEROBICYCLIC ALKYLTHIO-BRIDGED ISOXAZOLINES” (E.I. DU PONT DE NEMOURS AND COMPANY, priority 2008, published 2010):

How the values were obtained:
Type in all cases: in vivo
[1] = tested on: wheat (Triticum aestivum); assay: Test A postemergence, wheat; settings: 0 to 100 scale (0 no effect, 100 complete control)
Description: (§1) Seeds of barnyardgrass (Echinochloa crus-galli), large crabgrass (Digitaria sanguinalis), giant foxtail (Setaria faberi), morningglory (Ipomoea spp.), pigweed (Amaranthus retroflexus), velvetleaf (Abutilon theophrasti), wheat (Triticum aestivum), and corn (Zea mays) were planted into a blend of loam soil and sand and treated preemergence with a directed soil spray using test chemicals formulated in a non-phytotoxic solvent mixture which included a surfactant. At the same time these species were also treated with postemergence applications of test compounds formulated in the same manner. Plants ranged in height from two to ten cm and were in the one- to two-leaf stage for the postemergence treatment. Treated plants and untreated controls were maintained in a greenhouse for approximately ten days, after which time all treated plants were compared to untreated controls and visually evaluated for injury. Plant response ratings, summarized in Table A, are based on a 0 to 100 scale where 0 is no effect and 100 is complete control. A dash (-) response means no test result.

[2] = tested on: wheat (Triticum aestivum); assay: Test A preemergence, wheat; settings: 0 to 100 scale (0 no effect, 100 complete control)
Description: as §1

corn (Zea mays) [3] = assay: Test A postemergence, corn; settings: 0 to 100 scale (0 no effect, 100 complete control)
Description: as §1

[4] = tested on: ducksalad (Heteranthera limosa); assay: Test B flooded paddy test, ducksalad; settings: Flood, scale 0 to 100
Description: (§2) Plant species in the flooded paddy test consisted of rice (Oryza sativa), umbrella sedge (Cyperus difformis), ducksalad (Heteranthera limosa) and barnyardgrass (Echinochloa crus-galli) grown to the 2-leaf stage for testing. At time of treatment, test pots were flooded to 3 cm above the soil surface, treated by application of test compounds directly to the paddy water, and then maintained at that water depth for the duration of the test. Treated plants and controls were maintained in a greenhouse for 13 to 15 days, after which time all species were compared to controls and visually evaluated. Plant response ratings, summarized in Table B, are based on a scale of 0 to 100 where 0 is no effect and 100 is complete control. A dash (-) response means no test result.

[5] = tested on: pigweed (Amaranthus retroflexus); assay: Test A preemergence, pigweed; settings: 0 to 100 scale (0 no effect, 100 complete control)
Description: as §1

corn (Zea mays) [6] = assay: Test A preemergence, corn; settings: 0 to 100 scale (0 no effect, 100 complete control)
Description: as §1

[7] = tested on: barnyardgrass (Echinochloa crus-galli); assay: Test B flooded paddy test, barnyardgrass; settings: Flood
Description: as §2

[8] = tested on: large crabgrass (Digitaria sanguinalis); assay: Test A postemergence, large crabgrass; settings: 0 to 100 scale (0 no effect, 100 complete control)
Description: as §1

[9] = tested on: morningglory (Ipomoea spp.); assay: Test A preemergence, morningglory; settings: 0 to 100 scale (0 no effect, 100 complete control)
Description: as §1

[10] = tested on: giant foxtail (Setaria faberi); assay: Test A preemergence, giant foxtail; settings: 0 to 100 scale (0 no effect, 100 complete control)
Description: as §1

[11] = tested on: velvetleaf (Abutilon theophrasti); assay: Test A preemergence, velvetleaf; settings: 0 to 100 scale (0 no effect, 100 complete control)
Description: as §1

[12] = tested on: umbrella sedge (Cyperus difformis); assay: Test B flooded paddy test, umbrella sedge; settings: Flood, scale 0 to 100
Description: as §2

[13] = tested on: giant foxtail (Setaria faberi); assay: Test A postemergence, giant foxtail; settings: 0 to 100 scale (0 no effect, 100 complete control)
Description: as §1

[14] = tested on: large crabgrass (Digitaria sanguinalis); assay: Test A preemergence, large crabgrass; settings: 0 to 100 scale (0 no effect, 100 complete control)
Description: as §1

[15] = tested on: barnyardgrass (Echinochloa crus-galli); assay: Test A postemergence, barnyardgrass; settings: 0 to 100 scale (0 no effect, 100 complete control)
Description: as §1

[16] = tested on: pigweed (Amaranthus retroflexus); assay: Test A postemergence, pigweed; settings: 0 to 100 scale (0 no effect, 100 complete control)
Description: as §1

[17] = tested on: morningglory (Ipomoea spp.); assay: Test A postemergence, morningglory; settings: 0 to 100 scale (0 no effect, 100 complete control)
Description: as §1

rice (Oryza sativa) = assay: Test B flooded paddy test, rice; settings: Flood, scale 0 to 100
Description: as §2

[18] = tested on: barnyardgrass (Echinochloa crus-galli); assay: Test A preemergence, barnyardgrass; settings: 0 to 100 scale (0 no effect, 100 complete control)
Description: as §1

[19] = tested on: velvetleaf (Abutilon theophrasti); assay: Test A postemergence, velvetleaf; settings: 0 to 100 scale (0 no effect, 100 complete control)
Description: as §1

CC1(C)CC([S+]([O-])Cc2c(C(F)(F)F)nc3n(c2=O)CCS3)=NO1 (stereo not shown) [Compound 5]
Plant response rating, Wheat ([1]; 125 g ai/ha): 0 | Plant response rating, Wheat ([1]; 500 g ai/ha): 0 | Plant response rating, Wheat ([2]; 125 g ai/ha): 0 | Plant response rating, Wheat ([2]; 500 g ai/ha): 0 | Plant response rating, Corn (corn (Zea mays) [3]; 125 g ai/ha): 0 | Plant response rating, Corn (corn (Zea mays) [3]; 500 g ai/ha): 30 | Plant response rating, Ducksalad ([4]; 62 g ai/ha): 0 | Plant response rating, Ducksalad ([4]; 250 g ai/ha): 20 | Plant response rating, Pigweed ([5]; 125 g ai/ha): 40 | Plant response rating, Pigweed ([5]; 500 g ai/ha): 60 | Plant response rating, Corn (corn (Zea mays) [6]; 125 g ai/ha): 0 | Plant response rating, Corn (corn (Zea mays) [6]; 500 g ai/ha): 0 | Plant response rating, Barnyardgrass ([7]; 62 g ai/ha, scale 0 to 100): 10 | Plant response rating, Barnyardgrass ([7]; 250 g ai/ha, scale 0 to 100 (0 no effect, 100 complete control)): 30 | Plant response rating, Crabgrass, Large ([8]; 125 g ai/ha): 10 | Plant response rating, Crabgrass, Large ([8]; 500 g ai/ha): 70 | Plant response rating, Morningglory ([9]; 125 g ai/ha): 0 | Plant response rating, Morningglory ([9]; 500 g ai/ha): 0 | Plant response rating, Foxtail, Giant ([10]; 125 g ai/ha): 30 | Plant response rating, Foxtail, Giant ([10]; 500 g ai/ha): 80 | Plant response rating, Velvetleaf ([11]; 125 g ai/ha): 0 | Plant response rating, Velvetleaf ([11]; 500 g ai/ha): 0 | Plant response rating, Sedge, Umbrella ([12]; 62 g ai/ha): 0 | Plant response rating, Sedge, Umbrella ([12]; 250 g ai/ha): 45 | Plant response rating, Foxtail, Giant ([13]; 125 g ai/ha): 40 | Plant response rating, Foxtail, Giant ([13]; 500 g ai/ha): 70 | Plant response rating, Crabgrass, Large ([14]; 125 g ai/ha): 40 | Plant response rating, Crabgrass, Large ([14]; 500 g ai/ha): 80 | Plant response rating, Barnyardgrass ([15]; 125 g ai/ha): 30 | Plant response rating, Barnyardgrass ([15]; 500 g ai/ha): 60 | Plant response rating, Pigweed ([16]; 125 g ai/ha): 0 | Plant response rating, Pigweed ([16]; 500 g ai/ha): 10 | Plant response rating, Morningglory ([17]; 125 g ai/ha): 0 | Plant response rating, Morningglory ([17]; 500 g ai/ha): 0 | Plant response rating, Rice (rice (Oryza sativa); 62 g ai/ha): 0 | Plant response rating, Rice (rice (Oryza sativa); 250 g ai/ha): 0 | Plant response rating, Barnyardgrass ([18]; 125 g ai/ha): 0 | Plant response rating, Barnyardgrass ([18]; 500 g ai/ha): 70 | Plant response rating, Velvetleaf ([19]; 125 g ai/ha): 0 | Plant response rating, Velvetleaf ([19]; 500 g ai/ha): 40
